From BindingDB's records for doi:10.1016/j.bmcl.2004.08.039 (Glaxosmithkline, 2004)

Each compound was assayed against T1, Dimer of Gag-Pol polyprotein [501-599,Q508K,L534I,L564I,C568A,C596A] (Human immunodeficiency virus 1, UniProt P03367, C568A/C596A/L534I/L564I/Q508K) (assay: Protease Inhibition Assay). Conditions: pH 6.4; 25 °C.
T1 construct: 501-599
Experimental: The Ki values were determined using fluorogenic substrate, 2-(aminobenzoyl)-Thr-Ile-Nle-Phe(p-NO2)-Gln-ArgNH2. A standard curve relating changes in fluorescent intensity to changes in concentration of product was used to convert fluorescent changes into molar velocities. The amount of cleavage was determined by HPLC.
NC(=O)COc1cccc(C[C@H]2C[C@H](Cc3ccccc3)N(C[C@@H](O)C[C@@H](Cc3ccccc3)C(=O)N[C@H]3c4ccccc4C[C@H]3O)C2=O)c1 [(2R,4S)-2-benzyl-5-[(3S,5R)-5-benzyl-3-{[3-(carbamoylmethoxy)phenyl]methyl}-2-oxopyrrolidin-1-yl]-4-hydroxy-N-[(1S,2R)-2-hydroxy-2,3-dihydro-1H-inden-1-yl]pentanamide] showed a Ki of 0.09 nM. N#CCOc1cccc(C[C@H]2C[C@H](Cc3ccccc3)N(C[C@@H](O)C[C@@H](Cc3ccccc3)C(=O)N[C@H]3c4ccccc4C[C@H]3O)C2=O)c1 [(2R,4S)-2-benzyl-5-[(3S,5R)-5-benzyl-3-{[3-(cyanomethoxy)phenyl]methyl}-2-oxopyrrolidin-1-yl]-4-hydroxy-N-[(1S,2R)-2-hydroxy-2,3-dihydro-1H-inden-1-yl]pentanamide] was tested, and the Ki was 0.08 nM. Work on O=C(NCCOCCO)c1cccc(C[C@H]2C[C@H](Cc3ccccc3)N(C[C@@H](O)C[C@@H](Cc3ccccc3)C(=O)N[C@H]3c4ccccc4C[C@H]3O)C2=O)c1 [3-{[(3S,5R)-5-benzyl-1-[(2S,4R)-4-benzyl-2-hydroxy-4-{[(1S,2R)-2-hydroxy-2,3-dihydro-1H-inden-1-yl]carbamoyl}butyl]-2-oxopyrrolidin-3-yl]methyl}-N-[2-(2-hydroxyethoxy)ethyl]benzamide] yielded a Ki of 0.24 nM. Compound COC(=O)c1cccc(C[C@H]2C[C@H](Cc3ccccc3)N(C[C@@H](O)C[C@@H](Cc3ccccc3)C(=O)N[C@H]3c4ccccc4C[C@H]3O)C2=O)c1 [methyl 3-{[(3S,5R)-5-benzyl-1-[(2S,4R)-4-benzyl-2-hydroxy-4-{[(1S,2R)-2-hydroxy-2,3-dihydro-1H-inden-1-yl]carbamoyl}butyl]-2-oxopyrrolidin-3-yl]methyl}benzoate] has a Ki of 0.42 nM. Work on Nc1ccc(CC2C[C@H](Cc3ccccc3)N(C[C@@H](O)C[C@@H](Cc3ccccc3)C(=O)N[C@H]3c4ccccc4C[C@H]3O)C2=O)cc1 (stereo partly drawn) [(2R,4S)-5-[(5R)-3-[(4-aminophenyl)methyl]-5-benzyl-2-oxopyrrolidin-1-yl]-2-benzyl-4-hydroxy-N-[(1S,2R)-2-hydroxy-2,3-dihydro-1H-inden-1-yl]pentanamide] yielded a Ki of 2.3 nM. CCOC(=O)CNC(=O)Nc1cccc(C[C@H]2C[C@H](Cc3ccccc3)N(C[C@@H](O)C[C@@H](Cc3ccccc3)C(=O)N[C@H]3c4ccccc4C[C@H]3O)C2=O)c1 [ethyl 2-{[(3-{[(3S,5R)-5-benzyl-1-[(2S,4R)-4-benzyl-2-hydroxy-4-{[(1S,2R)-2-hydroxy-2,3-dihydro-1H-inden-1-yl]carbamoyl}butyl]-2-oxopyrrolidin-3-yl]methyl}phenyl)carbamoyl]amino}acetate] was tested, and the Ki was 0.1 nM. O=C(NCCN1CCOCC1)c1cccc(C[C@H]2C[C@H](Cc3ccccc3)N(C[C@@H](O)C[C@@H](Cc3ccccc3)C(=O)N[C@H]3c4ccccc4C[C@H]3O)C2=O)c1 [3-{[(3S,5R)-5-benzyl-1-[(2S,4R)-4-benzyl-2-hydroxy-4-{[(1S,2R)-2-hydroxy-2,3-dihydro-1H-inden-1-yl]carbamoyl}butyl]-2-oxopyrrolidin-3-yl]methyl}-N-[2-(morpholin-4-yl)ethyl]benzamide] gave a Ki of 0.15 nM. O=C(N[C@H]1c2ccccc2C[C@H]1O)[C@H](Cc1ccccc1)C[C@H](O)CN1C(=O)[C@@H](Cc2cccc(O)c2)C[C@@H]1Cc1ccccc1 [(2R,4S)-2-benzyl-5-[(3S,5R)-5-benzyl-3-[(3-hydroxyphenyl)methyl]-2-oxopyrrolidin-1-yl]-4-hydroxy-N-[(1S,2R)-2-hydroxy-2,3-dihydro-1H-inden-1-yl]pentanamide] gave a Ki of 0.05 nM. NC(=O)c1cccc(C[C@H]2C[C@H](Cc3ccccc3)N(C[C@@H](O)C[C@@H](Cc3ccccc3)C(=O)N[C@H]3c4ccccc4C[C@H]3O)C2=O)c1 [3-{[(3S,5R)-5-benzyl-1-[(2S,4R)-4-benzyl-2-hydroxy-4-{[(1S,2R)-2-hydroxy-2,3-dihydro-1H-inden-1-yl]carbamoyl}butyl]-2-oxopyrrolidin-3-yl]methyl}benzamide] showed a Ki of 0.1 nM. Compound Nc1cccc(C[C@H]2C[C@H](Cc3ccccc3)N(C[C@@H](O)C[C@@H](Cc3ccccc3)C(=O)N[C@H]3c4ccccc4C[C@H]3O)C2=O)c1 [(2R,4S)-5-[(3S,5R)-3-[(3-aminophenyl)methyl]-5-benzyl-2-oxopyrrolidin-1-yl]-2-benzyl-4-hydroxy-N-[(1S,2R)-2-hydroxy-2,3-dihydro-1H-inden-1-yl]pentanamide] has a Ki of 0.1 nM. N#Cc1ccc(CC2C[C@H](Cc3ccccc3)N(C[C@@H](O)C[C@@H](Cc3ccccc3)C(=O)N[C@H]3c4ccccc4C[C@H]3O)C2=O)cc1 (stereo partly drawn) [(2R,4S)-2-benzyl-5-[(5R)-5-benzyl-3-[(4-cyanophenyl)methyl]-2-oxopyrrolidin-1-yl]-4-hydroxy-N-[(1S,2R)-2-hydroxy-2,3-dihydro-1H-inden-1-yl]pentanamide] showed a Ki of 0.34 nM. Work on CCNC(=O)Nc1cccc(C[C@H]2C[C@H](Cc3ccccc3)N(C[C@@H](O)C[C@@H](Cc3ccccc3)C(=O)N[C@H]3c4ccccc4C[C@H]3O)C2=O)c1 [(2R,4S)-2-benzyl-5-[(3S,5R)-5-benzyl-3-({3-[(ethylcarbamoyl)amino]phenyl}methyl)-2-oxopyrrolidin-1-yl]-4-hydroxy-N-[(1S,2R)-2-hydroxy-2,3-dihydro-1H-inden-1-yl]pentanamide] yielded a Ki of 0.2 nM. N#Cc1cccc(C[C@H]2C[C@H](Cc3ccccc3)N(C[C@@H](O)C[C@@H](Cc3ccccc3)C(=O)N[C@H]3c4ccccc4C[C@H]3O)C2=O)c1 [(2R,4S)-2-benzyl-5-[(3S,5R)-5-benzyl-3-[(3-cyanophenyl)methyl]-2-oxopyrrolidin-1-yl]-4-hydroxy-N-[(1S,2R)-2-hydroxy-2,3-dihydro-1H-inden-1-yl]pentanamide] was tested, and the Ki was 0.05 nM. O=C(N[C@H]1c2ccccc2C[C@H]1O)[C@H](Cc1ccccc1)C[C@H](O)CN1C(=O)C(Cc2ccncc2)C[C@@H]1Cc1ccccc1 (stereo partly drawn) [(2R,4S)-2-benzyl-5-[(5R)-5-benzyl-2-oxo-3-(pyridin-4-ylmethyl)pyrrolidin-1-yl]-4-hydroxy-N-[(1S,2R)-2-hydroxy-2,3-dihydro-1H-inden-1-yl]pentanamide] gave a Ki of 0.31 nM. Compound NC(=O)c1cccc(C[C@H]2C[C@H](Cc3ccccc3)N(C[C@@H](O)C[C@@H](Cc3ccc(OCCO)cc3)C(=O)N[C@H]3c4ccccc4C[C@H]3O)C2=O)c1 [3-{[(3S,5R)-5-benzyl-1-[(2S,4R)-2-hydroxy-4-{[(1S,2R)-2-hydroxy-2,3-dihydro-1H-inden-1-yl]carbamoyl}-4-{[4-(2-hydroxyethoxy)phenyl]methyl}butyl]-2-oxopyrrolidin-3-yl]methyl}benzamide] has a Ki of 0.05 nM.
